According to patent publication US12398375B2, “Methods for improved poxvirus yields” (priority 2018, dated 2025):

Experiments:
[1] = system: vMyx-GFP in human A549 cells; assay: MYXV progeny virus titration assay (A549 infection, titrated on RK13 cells); type: cell-based, Myxoma virus; details: for levels of progeny virus (MYXV titers): A549 cells
[2] = system: MYXV expressing a GFP reporter gene (vMyx-GFP) in human A549 cells; assay: MYXV reporter gene (GFP) expression in human A549 cells, fluorescence microscopy; type: cell-based, Myxoma virus; details: human A549 cells pre-treated 1 h with different concentrations; vMyx-GFP MOI 1.0, 0.1 or 0.01; images at 48 h and 72 h post infection
[3] = system: VACV-GFP in human A549 cells; type: cell-based, vaccinia virus
[4] = system: VACV expressing GFP (VACV-GFP) in human A549 cells; type: cell-based, vaccinia virus
HeLa cells = details: cited from earlier work
CRM1 = CRM1 (Homo sapiens, UniProt O14980); details: reported (Dickmanns et al. 2015); cited from earlier work
Sequence of CRM1 (O14980 whole entry): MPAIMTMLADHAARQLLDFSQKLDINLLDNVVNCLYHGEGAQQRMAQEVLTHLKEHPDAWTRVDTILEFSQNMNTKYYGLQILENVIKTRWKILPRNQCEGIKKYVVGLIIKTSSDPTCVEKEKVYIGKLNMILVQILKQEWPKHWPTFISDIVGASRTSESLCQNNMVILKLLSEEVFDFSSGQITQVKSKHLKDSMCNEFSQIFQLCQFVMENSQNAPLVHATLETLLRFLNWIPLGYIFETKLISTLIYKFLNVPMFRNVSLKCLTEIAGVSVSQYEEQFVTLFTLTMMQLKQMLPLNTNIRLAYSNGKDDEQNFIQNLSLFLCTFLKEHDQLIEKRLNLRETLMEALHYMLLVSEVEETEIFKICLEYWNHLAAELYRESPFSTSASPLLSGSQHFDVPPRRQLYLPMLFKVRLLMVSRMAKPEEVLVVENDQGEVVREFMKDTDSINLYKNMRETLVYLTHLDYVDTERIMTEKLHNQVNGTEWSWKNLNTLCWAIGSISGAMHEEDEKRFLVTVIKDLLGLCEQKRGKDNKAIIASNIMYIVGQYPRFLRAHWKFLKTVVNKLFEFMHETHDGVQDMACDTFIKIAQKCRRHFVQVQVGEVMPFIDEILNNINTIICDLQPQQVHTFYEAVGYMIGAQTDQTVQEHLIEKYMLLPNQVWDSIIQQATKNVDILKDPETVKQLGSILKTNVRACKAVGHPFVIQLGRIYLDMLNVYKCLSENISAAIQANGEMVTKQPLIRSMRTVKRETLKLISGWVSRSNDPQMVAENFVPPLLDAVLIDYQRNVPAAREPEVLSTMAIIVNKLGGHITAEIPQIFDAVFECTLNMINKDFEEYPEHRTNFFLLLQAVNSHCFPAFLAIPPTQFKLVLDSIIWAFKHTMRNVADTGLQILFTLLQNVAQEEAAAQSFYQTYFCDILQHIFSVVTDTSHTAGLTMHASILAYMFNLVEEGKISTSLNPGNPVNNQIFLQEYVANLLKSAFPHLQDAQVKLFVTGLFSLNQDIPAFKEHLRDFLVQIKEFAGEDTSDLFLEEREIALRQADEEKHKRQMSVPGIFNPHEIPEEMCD

[5] = vMyx-GFP MOI 0.1 or 0.01, harvested after 48 h or 72 h, FIGS. 6A-6B
[6] = vMyx-GFP MOI 1.0, 0.1 or 0.01, inhibitor 0.001, 0.01 or 0.1 μM, harvested after 48 h, FIGS. 5A-5D

| Molecule | levels of progeny virus (MYXV titers) [1, 5] | levels of progeny virus (MYXV titers) [1, 6] | MYXV replication, as indicated by reporter gene expression (GFP fluorescence) [2] | levels of progeny virus (VACV titers) [3] | VACV replication, as indicated by reporter gene expression (GFP fluorescence) [4] | progeny virus production enhancement compared to the other tested drugs ([1]; FIGS. 6A and 6B, MOI 0.1 or 0.01, 48 h or 72 h) | concentration that arrests cells at the G1 phase (HeLa cells) | concentration that shuts down CRM1-mediated nuclear protein export (CRM1) |
| --- | --- | --- | --- | --- | --- | --- | --- | --- |
| CC(/C=C/C1CC=CC(=O)O1)=C\C(C)C/C=C/C(C)=C/C(C)C(=O)C(C)C(O)C(C)C/C(C)=C/C(=O)O (stereo not shown) [Anguinomycin A] | higher levels of progeny virus | higher levels of progeny virus | enhanced MYXV replication | – | – | – | – | – |
| CC(/C=C/C[C@@H](C)/C=C(C)/C=C/[C@@H]1OC(=O)C=C[C@@H]1C)=C\[C@@H](C)C(=O)[C@@H](C)[C@H](O)[C@@H](C)C/C(C)=C/C(=O)O [Leptomycin A] | higher levels of progeny virus | higher levels of progeny virus | enhanced myxoma virus (MYXV) replication | higher levels of progeny virus | enhanced VACV replication | – | – | – |
| CCC(=C/[C@H](C)C/C=C/C(C)=C/[C@@H](C)C(=O)[C@@H](C)[C@H](O)[C@@H](C)C/C(C)=C/C(=O)O)/C=C/[C@@H]1OC(=O)C=C[C@@H]1C [Leptomycin B] | higher levels of progeny virus | higher levels of progeny virus | enhanced MYXV replication | higher levels of progeny virus | enhanced VACV replication | highest progeny virus production enhancement | 50 pg/mL | – |
| Anguinomycin | – | – | – | – | – | – | – | above 10 nM |
| Ratjadone A | higher levels of progeny virus | higher levels of progeny virus | enhanced MYXV replication | – | – | – | – | – |
